# Experiments:
# [1] = Release test of nano-spinosad in water (UV-Vis 248 nm); assay type: physicochemical; settings: 25° C.
# Method: In a release test, 2.67 mg nano-spinosad-X (containing 1 mg spinosad) was dispersed in 1 ml distilled water, respectively. The mixtures were kept at 25° C. incubator at 200 rpm. The supernatants were collected at different time and the released amount of spinosad was measured and evaluated by using a UV-Vis spectrophotometer at a wavelength of 248 nm. The release amount of pure spinosad in water was also tested using the same procedure.
# The release profile of both pure spinosad and nano-spinosad were tested in water. […] On the other hand, for pure spinosad, only 2.4% of spinosad was released at 5 min while the cumulative release is less than 8% even at 540 min. […] Consequently, the release behaviour of spinosad is improved compared to the pure spinosad. The fast release of a higher concentration of spinosad is expected to be beneficial for the development of an “effective-immediately” nano-spinosad formulation.
# [2] = UV-stability test of nano-spinosad (HPLC); assay type: physicochemical; settings: UV 365 nm, 2 h
# Method: In this test, 1.2 mg pure spinosad and 4.2 mg nano-spinosad-0.4 (containing 1.2 mg spinosad) were added in two transparent quartz containers, respectively. The using of quartz containers is to minimized the shielding of UV light from the containers. Each of the sample was placed under the UV light with a wavelength of 365 nm and power of 17.77 mV cm^−3. All samples were irradiated by the UV light for 2 hours. After the irradiation, the spinosad and its degradation products were extracted by acetonitrile (ACN) for three times and the final concentration was diluted to. 0.5 mg/ml dispersed in 1 ml distilled water. The UV degradation conditions of both pure spinosad and nano-spinosad-0.4 were tested by high-performance liquid chromatography (HPLC) using ACN as the mobile phase.
# The UV stability of nano-spinosad was studied. Both spinosad and nano-spinosad were irradiated under UV light (wavelength 365 nm, 17.77 mV/cm^3) for 2 h followed by HPLC which was used to monitor the product after UV treatment utilizing ACN as the extraction media and mobile phase. […] An additional peak at retention time of 1.5 min was also observed in the pure spinosad group, which can be attributed to the degraded product. This observation is in accordance with literature reports, indicating spinosad itself is UV labile.
# [3] = system: cattle tick, Rhipicephalus microplus; experiment: Larval Immersion Test on cattle tick larvae; assay type: in vivo; settings: Assay 3, 24 h
# Method: The in vitro effects of spinosad and nano-spinosad on the cattle tick, Rhipicephalus microplus were evaluated. The test was conducted at Biosecurity Sciences Laboratory (Queensland Government) using a standard Larval Immersion Test using organic solvent to extract the actives.
# The test was conducted at Biosecurity Sciences Laboratory (Queensland Government) using a standard Larval Immersion Test. In the Larval Immersion Test, both spinosad and nano-Spinsad were firstly dissolved in organic solvent (2% Triton X-100 in acetone) to extract the actives for stock solution (10 mg/ml) and then be diluted in water. […] Three assays were conducted to narrow the LC ranges.
# [4] = UV protection of ivermectin (HPLC); assay type: physicochemical; settings: free or loaded into particles, UV irradiation 3 h
# Method: To investigate the UV protection properties of the silica particles toward ivermectin these nano-formulations as well as pure (free) ivermectin were treated under UV irradiation for 3 h. The samples before and after UV irradiation were analysed using high performance liquid chromatography (HPLC) to identify their compositions. […] This may result from the fact that ivermectin is only partially loaded into the internal cavity of the MSHS-SS particles, resulting in only partial protection.
# E. coli [5] = experiment: Long-term bacterial inhibition, bacteria kinetic test under batch culture; assay type: cell-based; settings: lysozyme 700 μg·mL^−1, 3 days
# E. coli [6] = experiment: In vitro antibacterial activity of lysozyme formulations (OD); assay type: cell-based; settings: E. coli 5×10^6 CFU mL^−1, 24 h
# Method: The in vitro antibacterial activity of free lysozyme and lysozyme loaded silica particles formulated using the above procedure were compared by the optical density (OD) measurement. E. coli (5×10^6 CFU mL^−1) was incubated with various concentrations of lysozyme and corresponding lysozyme loaded silica particles for 24 h. […] In contrast, the MIC of free lysozyme towards E. coli cannot be achieved even at the concentration as high as […].
# [7] = system: Escherichia coli (E. coli); experiment: In vitro antibacterial activity of VAN formulations (OD 600 nm); assay type: cell-based; settings: VAN content 25 μg ml^−1, after 18 h
# Method: The use of nanoparticles as a delivery vehicle for antibiotics provides a promising strategy through prolonged drug circulation half-life, increased availability of drugs interacting with membrane molecules and promoted sustained drug release. VAN is an antibiotic useful for the treatment of a number of bacterial infections since it inhibits the cell wall synthesis in susceptible bacteria. […] The in vitro antibacterial activity of VAN, MHS200-VAN and RMHS200-VAN was evaluated by monitoring the optical density (OD) at 600 nm of a bacterial suspension. E. coli (1×10^6 CFU mL^−1) was incubated in Luria-Bertani (LB) medium in a 1.5 ml centrifuge tube at various concentrations of VAN for 18 h. […] This value reduced to 20 μg ml^−1 for RMHS200-VAN which is lower than the dosage used with VAN conjugated MCM-41 (200 μg ml^−1) in in-vitro E. coli culture at 18 h. In a separate experiment, MHS200-VAN, RMHS200-VAN and free VAN with the same VAN content of 25 μg ml^−1 were incubated with 1×10^6 CFU mL^−1 E. Coli in LB media and OD was measured as a function of time.
molecule,measurement,setting,value
spinosad,spinosad released,[1]; at 5 min,2.4%
same,cumulative release of spinosad,[1]; at 540 min,less than 8%
same,UV degradation (HPLC degradation peak),[2],UV labile
same,LC50 value to larval cattle ticks,[3],54 ppm
same,LC99 value to larval cattle ticks,[3],196 ppm
ivermectin [Free ivermectin],degradation of ivermectin after UV irradiation (HPLC),[4],fully degraded
lysozyme [free lysozyme],bacterial growth over time (OD),E. coli [5],time dependent bacterial growth
same,MIC towards E. coli,E. coli [6],> 2 mg
"CN[C@H](CC(C)C)C(=O)N[C@H]1C(=O)N[C@@H](CC(N)=O)C(=O)N[C@H]2C(=O)N[C@H]3C(=O)N[C@H](C(=O)N[C@H](C(=O)O)c4cc(O)cc(O)c4-c4cc3ccc4O)[C@H](O)c3ccc(c(Cl)c3)Oc3cc2cc(c3O[C@@H]2O[C@H](CO)[C@@H](O)[C@H](O)[C@H]2O[C@H]2C[C@](C)(N)[C@H](O)[C@H](C)O2)Oc2ccc(cc2Cl)[C@H]1O [free VAN, vancomycin]",bacterial growth over time (OD),[7],re-growth of bacteria
